Laboratory results taken from patent US5279824A, “Pharmaceutical formulation containing heparin and endo-beta-glucuronidase, useful for the treatment of thrombosis” (Merck Patent GmbH, priority 1988, dated 1994).

Legend:
[1] = test system: mammalian testicular hyaluronidase; conditions: Mathews & Dorfman, Physiological Review, 35; cited from earlier work
leech hyaluronidase [2] = test: Leech hyaluronidase activity with heparin, with and without hementin; assay type: biochemical; conditions: 60 min
Experimental: (§1) Leech hyaluronidase (68 IU/ml was preincubated for one hour at 25° C. in the presence of concentrations of heparin (0-2500 USP/1 ml) in 20 mM methanesulphonic acid (MES), 0.1M NaCl, pH 5.0 buffer and then added to hyaluronic acid (5 mg/ml) and the incubation continued for one hour at 37° C. The generation of reducing sugars was determined by terminating the reactions by the addition of 1:1 3,5-dinitrosalicylic acid reagent (100 ml: 5% w/v dinitrosalicylic acid in 2M NaOH plus 250 ml: 60% w/v sodium potassium tartrate in water, made up to 500 ml with water) and heating for 5 min in vigorously boiling water. After heating, assay tubes were rapidly cooled to ambient temperature and absorbances at 540 nm measured spectrophotometrically. Suitable blanks and no-enzyme controls were included in the assay. The results are expressed as a percentage of the absorbances obtained in control incubations containing no heparin.
B) Leech hyaluronidase (75 IU/ml) was mixed with and without hementin (180 IU/ml) (where IU is defined as one microgram of fibrinogen incoagulated/min/37° C.) end incubated with heparin (1.5-1500 USP/ml) for one hour at 25° C. prior to addition to hyaluronic acid (2 mg/ml) and further incubation for one hour at 37° C. Reducing sugar levels were determined (see Example 1) and the results expressed as a percentage of controls containing no heparin. (Table 3).

leech hyaluronidase [3] = test: Reducing sugar assay of leech hyaluronidase preincubated with heparin; assay type: biochemical; conditions: heparin up to 2500 USP/ml; preincubated one hour at 25° C.; enzyme 68 IU/ml; FIG. 1
Experimental: as §1

[4] = Clotting time of patient plasma before and after heparinisation; assay type: in vivo, human; conditions: patient plasma after heparinisation with 30,000 USP/24 h; 40 seconds before
Experimental: B) Leech hyaluronidase (200 IU/ml) was preincubated for one hour at 25° C. with and without plasma and heparinised plasma in 20 mM MES, 0.1M NaCl, pH 5.0 buffer. Plasma was obtained from a patient before and after heparinisation with 30,000 USP/24 h resulting in an increase in the clotting time of 40 seconds to 80 seconds. Incubations were continued by addition to hyaluronic acid (see section A, above) and reducing sugars determined as above (Example 1).

whole blood = test: Whole blood clotting time after incubation of heparin with or without leech hyaluronidase
Experimental: Heparin (0-150 USP/ml) was incubated for one hour at […] either with or without leech hyaluronidase (50 IU/ml) and in 20 mM MES, 0.1M NaCl, pH 5.0 buffer; then whole blood was added to determine the effect on clottability.

[5] = test system: mammalian testicular hyaluronidase; test: Reducing sugar assay of mammalian testicular hyaluronidase preincubated with heparin; assay type: biochemical; conditions: heparin above 3 USP/ml; MTH 75 IU/ml; preincubated one hour at 25° C.
Experimental: as §1, with “heparin. […] MTH (75 IU/ml) was preincubated for one hour at 25° C. with heparin (0 to 250 USP/ml) in 20 mM MES, 0.1M NaCl pH 5.0, buffer and then added (1:10 final dilution) to hyaluronate and incubated for a further one hour at 37° C. Activity was determined using the reducing sugar assay (described above) and is expressed as a percentage of controls without heparin. […]” for “heparin.”

Rats = test: Indian ink spreading after subcutaneous injection in rats; assay type: in vivo, rat; conditions: heparin 250 to 2500 USP/ml with leech hyaluronidase
Experimental: Leech hyaluronidase (100 IU/ml) was mixed 1:1 with Indian ink in 20 mM MES, 0.1M NaCl pH 5.0, buffer in the presence or absence of heparin (250 to 2500 USP/ml). Rats were injected subcutaneously with 50 microlitres of this mixture and spreading allowed to occur over a period of 1 to 3 hours. The rats were sacrificed and the skin removed for observation of the area of spreading.

leech hyaluronidase [6] = test: Leech hyaluronidase activity in the presence of tPA with and without heparin; assay type: biochemical; conditions: tPA range of concentrations; presence or absence of heparin 200 USP/ml; FIG. 5
Experimental: as §1
A) Leech hyaluronidase (68 IU/ml) was mixed with and without heparin (200 USP/ml) and human tissue plasminogen activator (tPA) in a range of concentrations ([…]) and with hyaluronic acid (5 mg/ml) and incubated for 1 h at 37° C. Reducing sugars were determined (Example 1) and results expressed as a percentage of controls containing no tPA.

## Heparin
[1]
  inhibition of mammalian testicular hyaluronidase by heparin: inhibited competitively
Leech hyaluronidase [2]; Heparin 1.5 USP/ml, With Hementin (180 IU/ml)
  leech hyaluronidase activity, % Control (no heparin): 103%
Leech hyaluronidase [2]; Heparin 1.5 USP/ml, Without Hementin
  leech hyaluronidase activity, % Control (no heparin): 97.5%
Leech hyaluronidase [2]; Heparin 15 USP/ml, With Hementin (180 IU/ml)
  leech hyaluronidase activity, % Control (no heparin): 93.8%
Leech hyaluronidase [2]; Heparin 15 USP/ml, Without Hementin
  leech hyaluronidase activity, % Control (no heparin): 100%
Leech hyaluronidase [2]; Heparin 150 USP/ml, With Hementin (180 IU/ml)
  leech hyaluronidase activity, % Control (no heparin): 100%
Leech hyaluronidase [2]; Heparin 150 USP/ml, Without Hementin
  leech hyaluronidase activity, % Control (no heparin): 103%
Leech hyaluronidase [2]; Heparin 1500 USP/ml, With Hementin (180 IU/ml)
  leech hyaluronidase activity, % Control (no heparin): 109%
Leech hyaluronidase [2]; Heparin 1500 USP/ml, Without Hementin
  leech hyaluronidase activity, % Control (no heparin): 103%
Leech hyaluronidase [3]
  leech hyaluronidase activity, percentage of control incubations containing no heparin: no significant effect
[4]
  clotting time: 80 s
Whole blood; Heparin 1.0 USP/ml, Leech Enzyme (50IU/ml)
  Whole Blood Clotting Time: 14.5 min
Whole blood; Heparin 1.0 USP/ml, without leech enzyme
  Whole Blood Clotting Time: 14.5 min
Whole blood; Heparin 2.5 USP/ml, Leech Enzyme (50IU/ml)
  Whole Blood Clotting Time: 24.5 min
Whole blood; Heparin 2.5 USP/ml, without leech enzyme
  Whole Blood Clotting Time: 24.0 min
Whole blood; Heparin 5 USP/ml, Leech Enzyme (50IU/ml)
  Whole Blood Clotting Time: NC (no clot formation before 20 minutes at 37° C.)
Whole blood; Heparin 5 USP/ml, without leech enzyme
  Whole Blood Clotting Time: NC (no clot formation before 20 minutes at 37° C.)
Whole blood; Heparin 10 USP/ml, Leech Enzyme (50IU/ml)
  Whole Blood Clotting Time: NC (no clot formation before 20 minutes at 37° C.)
Whole blood; Heparin 10 USP/ml, without leech enzyme
  Whole Blood Clotting Time: NC (no clot formation before 20 minutes at 37° C.)
Whole blood; Heparin 20 USP/ml, Leech Enzyme (50IU/ml)
  Whole Blood Clotting Time: NC (no clot formation before 20 minutes at 37° C.)
Whole blood; Heparin 20 USP/ml, without leech enzyme
  Whole Blood Clotting Time: NC (no clot formation before 20 minutes at 37° C.)
[5]
  mammalian testicular hyaluronidase activity, percentage of controls without heparin: completely inhibited
Rats
  effect of heparin on enzyme-induced ink spreading: not significantly affected

## tPA: human tissue plasminogen activator, a clot-lytic agent
Leech hyaluronidase [6]
  leech hyaluronidase activity, percentage of controls containing no tPA: no effect
